Like-named read-outs stand apart in the source and are kept apart here.
How the values were obtained:
[1] = biological target: T1, α1G T-type calcium ion channels (Homo sapiens, UniProt O43497); assay: Ion current inhibition on T-type calcium ion channels using a patch clamp (HEK293 cells); assay type: cell-based
T1 construct: host or cells: HEK293
Method: Measurement of Ion Current Inhibition on T-Type Calcium Ion Channels Using a Patch Clamp
(1) Cell Culture and Preparation
20 hours prior to the use of the medium for expression of hERG channels, the Tet-expression system was activated by treating the medium with 1 μg/ml doxycycline.
The cells in the experiment was passaged once in three days, and collected when the cells were grown to 50˜80% confluency in the Petri dish. […] Trypsin was removed using a centrifuge, an extracellular solution was added, and cells floating automatically by a Patchliner were used at room temperature.
(2) Experimental Solution
As a solution composition for measurement of activation of T-type calcium ion channels, 140 mM NaCl, 2 mM CaCl2, 4 mM KCl, 1 mM MgCl2, 5 mM D-glucose, and 10 mM HEPES (pH 7.4) were used for an extracellular solution, and 50 mM KCl, 10 mM NaCl, 60 mM KF, 2 mM MgCl2, 10 mM HEPES, and 20 mM EGTA (pH 7.2) were used for an intracellular solution. To maintain the pre-cellular state, a seal reinforced solution was added. When T-type calcium ion channel expression cells were used, an extracellular solution supplemented with 10 mM Ba^2+ was added and records about the result were made.
(3) Electro-Physiological Technique and Data Processing
The current was measured through an EPC10 amplifier (HEKA, Germany) by a precellular patch clamp technique using NPC©-16 Patchliner (Nanion Technologies, Germany). Cell suspensions and various experimental solutions were automatically aliquotted into chips (NPC-16 Chip, Nanion Technologies, Germany) by experimental devices. A cell membrane potential was fixed at −100 mV for measurement of activation of T-type calcium ion channels. When a low polarization was performed at −20 mV for 300 ms, the inward current was measured at ten-second intervals.
The IC50 graphs and values were obtained from the automatic calculation of inhibition rates of the peak current using an experimental data analysis program IGOR Pro (WaveMetrics, USA).

[2] = tested on: spinal nerve ligation animal model; details: Barton et al. 2005; cited from earlier work
[3] = tested on: T-type calcium ion channel; details: T-type versus L-type; cited from earlier work
[4] = patch clamp, HEK293 α1G cells, 10 nM to 100 μM, read-out: IC50
[5] = read-out: % inhibition rate (10 μM), 10 μM, peak inward current, HEK293 cells expressing α1G T-type channel
[6] = patch clamp, HEK293 α1G cells, unit nM, read-out: IC50 (μM), cells marked

T1 sequence (O43497 whole entry): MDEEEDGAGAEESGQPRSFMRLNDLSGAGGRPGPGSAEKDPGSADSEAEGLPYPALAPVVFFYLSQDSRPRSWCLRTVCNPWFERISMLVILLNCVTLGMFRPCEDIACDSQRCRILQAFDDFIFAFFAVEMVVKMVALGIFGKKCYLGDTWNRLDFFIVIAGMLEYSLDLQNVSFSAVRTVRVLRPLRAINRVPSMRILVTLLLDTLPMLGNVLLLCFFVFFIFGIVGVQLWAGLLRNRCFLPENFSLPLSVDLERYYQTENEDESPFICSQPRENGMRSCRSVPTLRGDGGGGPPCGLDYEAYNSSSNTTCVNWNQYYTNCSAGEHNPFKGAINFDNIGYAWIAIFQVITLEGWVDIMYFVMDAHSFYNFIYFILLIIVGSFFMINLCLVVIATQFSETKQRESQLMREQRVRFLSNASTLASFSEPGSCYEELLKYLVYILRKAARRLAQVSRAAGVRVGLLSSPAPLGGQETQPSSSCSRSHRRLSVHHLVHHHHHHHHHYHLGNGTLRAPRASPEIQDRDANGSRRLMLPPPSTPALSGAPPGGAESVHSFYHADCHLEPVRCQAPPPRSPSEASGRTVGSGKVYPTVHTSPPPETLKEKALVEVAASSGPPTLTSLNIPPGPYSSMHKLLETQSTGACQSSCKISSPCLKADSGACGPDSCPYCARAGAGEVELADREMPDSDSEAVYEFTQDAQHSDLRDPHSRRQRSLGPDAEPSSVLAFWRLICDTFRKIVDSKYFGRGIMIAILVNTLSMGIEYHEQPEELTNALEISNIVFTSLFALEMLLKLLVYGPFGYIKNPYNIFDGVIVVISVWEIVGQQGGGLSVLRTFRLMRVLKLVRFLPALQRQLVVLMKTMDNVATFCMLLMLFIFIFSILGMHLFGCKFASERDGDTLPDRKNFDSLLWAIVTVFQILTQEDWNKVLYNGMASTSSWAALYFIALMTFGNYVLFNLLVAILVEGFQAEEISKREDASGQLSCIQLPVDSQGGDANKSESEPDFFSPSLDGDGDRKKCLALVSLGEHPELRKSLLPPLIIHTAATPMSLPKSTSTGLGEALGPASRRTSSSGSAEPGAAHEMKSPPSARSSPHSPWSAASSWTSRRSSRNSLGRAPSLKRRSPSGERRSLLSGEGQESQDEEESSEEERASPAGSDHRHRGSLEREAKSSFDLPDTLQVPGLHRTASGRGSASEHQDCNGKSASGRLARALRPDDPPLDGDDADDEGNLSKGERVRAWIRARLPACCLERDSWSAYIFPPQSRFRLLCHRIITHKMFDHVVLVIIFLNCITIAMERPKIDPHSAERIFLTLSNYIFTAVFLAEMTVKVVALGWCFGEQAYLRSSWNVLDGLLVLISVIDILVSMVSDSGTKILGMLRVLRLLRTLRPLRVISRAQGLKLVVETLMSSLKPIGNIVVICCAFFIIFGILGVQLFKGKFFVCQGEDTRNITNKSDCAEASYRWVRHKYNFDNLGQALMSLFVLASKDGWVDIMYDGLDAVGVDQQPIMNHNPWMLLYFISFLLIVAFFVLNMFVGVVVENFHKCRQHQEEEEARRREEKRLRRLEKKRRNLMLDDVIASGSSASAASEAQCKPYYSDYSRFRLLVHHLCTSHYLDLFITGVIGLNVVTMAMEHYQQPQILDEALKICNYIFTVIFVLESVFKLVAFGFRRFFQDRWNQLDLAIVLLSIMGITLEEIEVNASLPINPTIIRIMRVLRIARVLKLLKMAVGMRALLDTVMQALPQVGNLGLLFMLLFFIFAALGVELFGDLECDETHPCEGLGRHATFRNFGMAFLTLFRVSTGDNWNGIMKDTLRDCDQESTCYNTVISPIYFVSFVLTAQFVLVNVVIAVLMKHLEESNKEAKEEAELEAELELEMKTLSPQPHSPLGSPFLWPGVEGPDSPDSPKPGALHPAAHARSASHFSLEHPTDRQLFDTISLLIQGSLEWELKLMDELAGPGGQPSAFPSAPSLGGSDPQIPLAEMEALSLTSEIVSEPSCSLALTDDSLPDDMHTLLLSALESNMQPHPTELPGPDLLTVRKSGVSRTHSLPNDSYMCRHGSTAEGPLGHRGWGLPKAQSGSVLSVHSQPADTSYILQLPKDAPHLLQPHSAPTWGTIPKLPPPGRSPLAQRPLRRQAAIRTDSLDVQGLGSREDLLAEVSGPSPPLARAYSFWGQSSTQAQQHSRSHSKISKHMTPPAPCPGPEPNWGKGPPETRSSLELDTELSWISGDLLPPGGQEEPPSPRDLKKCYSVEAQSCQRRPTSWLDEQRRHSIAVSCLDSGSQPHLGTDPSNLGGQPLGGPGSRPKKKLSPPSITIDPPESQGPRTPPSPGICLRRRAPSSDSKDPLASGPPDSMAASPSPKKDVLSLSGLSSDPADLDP

Structure (SMILES)	IC50 [1, 4] [nM]	inhibition at 10 µM [1, 5] [%]	further results
COC(=O)C(CCCN1CCN(Cc2ccc(C(F)(F)F)cc2)CC1)(c1ccc(Br)cc1)C(C)C (centres unmarked) [Embodiment 34, methyl 2-(4-bromophenyl)-2-isopropyl-5-(4-(4-(trifluoromethyl)benzyl)piperazine-1-yl)pentanoate]	–	–	IC50 [1]: 280 ± 20 nM; inhibition at 10 µM ([1]; HEK293, read-out: % inhibition rate (10 μM)): 93 ± 1.5%
CCOC(=O)C(CCCN(C)CCCc1nc2ccccc2[nH]1)(c1ccccc1)C(C)C (centres unmarked) [Embodiment 10]	250 ± 5	98.3 ± 0.9	–
CCOC(=O)C(CCCN1CCN(Cc2ccc(OC)cc2)CC1)(c1ccccc1)C(C)C (centres unmarked) [Embodiment 23, ethyl 2-isopropyl-5-(4-(4-methoxybenzyl)piperazine-1-yl)-2-phenylpentanoate]	340 ± 20	96.3 ± 1.7	–
COC(=O)C(CCCN(C)CCCc1nc2ccccc2[nH]1)(c1ccc(OC)cc1)C(C)C (centres unmarked) [Embodiment 4]	190 ± 1	93.5 ± 3.2	–
CCC1(C)CC(=O)NC1=O (centres unmarked) [Ethosuximide]	–	–	reversal of mechanic and thermal induction [2]: dosage-dependent reversed mechanic and thermal induction
CCOC(=O)C(CCCN(C)CCCc1nc2cc(C)c(C)cc2[nH]1)(c1ccccc1)C(C)C (centres unmarked) [Embodiment 11]	100 ± 10	91.4 ± 0.4	–
COC(=O)C(CCCN1CCN(Cc2ccc(F)cc2)CC1)(c1ccc(Br)cc1)C(C)C (centres unmarked) [Embodiment 32, methyl 2-(4-bromophenyl)-5-(4-(4-fluorobenzyl)piperazine-1-yl)-2-isopropylpentanoate]	1110 ± 50	96.5 ± 1.7	–
COC(=O)C(CCCN1CCN(Cc2ccc(OC)c(OC)c2OC)CC1)(c1ccc(Br)cc1)C(C)C (centres unmarked) [Embodiment 39, methyl 2-(4-bromophenyl)-2-isopropyl-5-(4-(2,3,4-trimethoxybenzyl)piperazine-1-yl)pentanoate]	320 ± 10	95.1 ± 1.9	–
COC(=O)C(CCCN1CCN(Cc2cccc(F)c2)CC1)(c1ccc(Br)cc1)C(C)C (centres unmarked) [Embodiment 31, methyl 2-(4-bromophenyl)-5-(4-(3-fluorobenzyl)piperazine-1-yl)-2-isopropylpentanoate]	980 ± 110	89.3 ± 1.6	–
COCC(=O)O[C@]1(CCN(C)CCCc2nc3ccccc3[nH]2)CCc2cc(F)ccc2[C@@H]1C(C)C [mibefradil]	–	95.9 ± 1.7	more inhibitory activity to the T-type than to the L-type [3]: 10 to 30 times; reversal of mechanic and thermal induction [2]: dosage-dependent reversed mechanic and thermal induction
COC(=O)C(CCCN1CCN(Cc2ccc(OC)cc2)CC1)(c1ccc(Br)cc1)C(C)C (centres unmarked) [Embodiment 38, methyl 2-(4-bromophenyl)-2-isopropyl-5-(4-(4-methoxybenzyl)piperazine-1-yl)pentanoate]	480 ± 80	96 ± 1.7	–

Now from value to compound, other results behind:

IC50 [1, 4] [nM]	inhibition at 10 µM [1, 5] [%]	Structure (SMILES)	further results
740 ± 20	90.4 ± 3.2	COC(=O)C(CCCN1CCN(Cc2ccccc2F)CC1)(c1ccc(Br)cc1)C(C)C (centres unmarked) [Embodiment 30, methyl 2-(4-bromophenyl)-5-(4-(2-fluorobenzyl)piperazine-1-yl)-2-isopropylpentanoate]	–
–	96.9 ± 0.59	COC(=O)C(CCCN(C)CCCc1nc2ccccc2[nH]1)(c1ccc(Br)cc1)C(C)C (centres unmarked) [Embodiment 1, 5-{[3-(1H-benzimidazole-2-yl)propyl]methylamino}-2-(4-bromophenyl)-2-isopropylpentanoic acid methyl ester]	IC50 [1, 6]: 8.17 ± 0.48 nM
–	94.1 ± 1.5	COC(=O)C(CCCN1CCN(c2ccccc2OC)CC1)(c1ccc(Br)cc1)C(C)C (centres unmarked) [Embodiment 35, methyl 2-(4-bromophenyl)-2-isopropyl-5-(4-(2-methoxyphenyl)piperazine-1-yl)pentanoate]	IC50 [1, 6]: 95 ± 14.8 nM
390 ± 30	94.9 ± 1.5	COC(=O)C(CCCN1CCN(Cc2cccc(C)c2)CC1)(c1ccc(Br)cc1)C(C)C (centres unmarked) [Embodiment 40, methyl 2-(4-bromophenyl)-2-isopropyl-5-(4-(3-methylbenzyl)piperazine-1-yl)pentanoate]	–
880 ± 70	91.7 ± 1.9	COC(=O)C(CCCN(C)CCCc1nc2cc(OC)ccc2[nH]1)(c1ccc(OC)cc1)C(C)C (centres unmarked) [Embodiment 5]	–
260 ± 30	94 ± 2.5	CCOC(=O)C(CCCN1CCN(Cc2ccc(F)cc2)CC1)(c1ccccc1)C(C)C (centres unmarked) [Embodiment 26, ethyl 5-(4-(4-fluorobenzyl)piperazine-1-yl)-2-isopropyl-2-phenylpentanoate]	–
–	94.2 ± 0.4	COC(=O)C(CCCN(C)CCCc1nc2cc(C)c(C)cc2[nH]1)(c1ccc(Br)cc1)C(C)C (centres unmarked) [Embodiment 12]	IC50 [1, 6]: 53 ± 4.87 nM
250 ± 10	94.5 ± 1.2	COC(=O)C(CCCN(C)CCCc1nc2cc(OC)ccc2[nH]1)(c1ccc(Br)cc1)C(C)C (centres unmarked) [Embodiment 13]	–
